Data taken from patent US20210130401A1, “PEPTIDOMIMETIC INHIBITORS OF THE WDR5-MLL INTERACTION” (THE REGENTS OF THE UNIVERSITY OF MICHIGAN, priority 2017, published 2021).
Starred links: 1 amine or outer side, 2 acyl side, 3 side chain; linkers in the order of their positions; H or OH if unused. Positions of bridges follow the written chain, without caps; N, C: chain ends. Non-standard residues stand in square brackets, D forms with d. Residues, ends and D or L forms follow the SMILES beside them. ξ: configuration not given here. *: point of attachment. Orn(2-imidazolinyl) = N[C@@H](CCCNC1=NCCN1)C(=O)O; dαMeDab = C[C@](CCN[*:3])(N[*:1])C(=O)[*:2]; Arg(Me2s) = CN=C(NC)NCCC[C@H](N)C(=O)O; Lys(Me2) = CN(C)CCCC[C@H](N)C(=O)O; Cit = NC(=O)NCCC[C@H](N)C(=O)O; dCha = N[C@H](CC1CCCCC1)C(=O)O; dPhg = N[C@@H](C(=O)O)c1ccccc1; ξhhPhe = NC(CCCc1ccccc1)C(=O)O; ξhPhe = NC(CCc1ccccc1)C(=O)O; Imidazol2yl = c1c[nH]c(*)n1; Pyridin(2-yl) = c1ccc(*)nc1; 2Pyrimidinyl = c1cnc(*)nc1; Isobutyryl = CC(C)C(=O)*; Orn = NCCC[C@H](N)C(=O)O; Dab = NCC[C@H](N)C(=O)O; Abu = CC[C@H](N)C(=O)O; Dap = NC[C@H](N)C(=O)O; ξOrn = NCCCC(N)C(=O)O; Acryloyl = C=CC(=O)*; ξDab = NCCC(N)C(=O)O; ClAc = O=C(CCl)*

system: MOLM-13 leukemia cells carrying MLL-AF9 fusion; assay: cell viability assay (WST-8), MOLM-13; type: cell-based; conditions: Homo sapiens, MOLM-13, 96 h, read-out: MOLM-13 IC50 (μM)

Question: For `CC[C@@H]1NC(=O)[C@H](CCCCN(C)C)NC(=O)[C@](C)(NC(=O)C(C)C)CCNC(=O)[C@@H](c2ccccc2)NC1=O` [Cpd. No. 6, N-((3R,6S,9S,12R)-9-(4-(dimethylamino)butyl)-6-ethyl-12-methyl-2,5,8,11-tetraoxo-3-phenyl-1,4,7,10-tetraazacyclotetradecan-12-yl)isobutyramide] (Isobutyryl-[dαMeDab][Lys(Me2)][Abu][dPhg]; lactam 1-C), which IC50 is on record?
Answer: > 10 µM

Question: `CC[C@@H]1NC(=O)[C@H](CNC2CCN(C)CC2)NC(=O)[C@](C)(NC(=O)C(C)C)CCNC(=O)[C@@H](c2ccccc2)NC1=O` [Cpd. No. 7, N-((3R,6S,9S,12R)-6-ethyl-12-methyl-9-(((1-methylpiperidin-4-yl)amino)methyl)-2,5,8,11-tetraoxo-3-phenyl-1,4,7,10-tetraazacyclotetradecan-12-yl)isobutyramide] was tested. Which IC50 did it give?
Answer: > 10 µM

Question: With `CC[C@@H]1NC(=O)[C@H](CCNC2CCN(C)CC2)NC(=O)[C@](C)(NC(=O)C(C)C)CCNC(=O)[C@@H](c2ccccc2)NC1=O` [Cpd. No. 8, N-((3R,6S,9S,12R)-6-ethyl-12-methyl-9-(2-((1-methylpiperidin-4-yl)amino)ethyl)-2,5,8,11-tetraoxo-3-phenyl-1,4,7,10-tetraazacyclotetradecan-12-yl)isobutyramide] as the compound, how does the IC50 read?
Answer: > 10 µM

Question: `CC[C@@H]1NC(=O)[C@H](CCCNC2CCN(C)CC2)NC(=O)[C@](C)(NC(=O)C(C)C)CCNC(=O)[C@@H](c2ccccc2)NC1=O` [Cpd. No. 9, N-((3R,6S,9S,12R)-6-ethyl-12-methyl-9-(3-((1-methylpiperidin-4-yl)arnino)propyl)-2,5,8,11-tetraoxo-3-phenyl-1,4,7,10-tetraazacyclotetradecan-12-yl)isobutyramide] was tested. Which IC50 did it give?
Answer: > 10 µM

Question: `CC[C@@H]1NC(=O)[C@H](CNc2ccccn2)NC(=O)[C@](C)(NC(=O)C(C)C)CCNC(=O)[C@@H](c2ccccc2)NC1=O` [Cpd. No. 10, N-((3R,6S,9S,12R)-6-ethyl-12-methyl-2,5,8,11-tetraoxo-3-phenyl-9-((pyridin-2-ylamino)methyl)-1,4,7,10-tetraazacyclotetradecan-12-yl)isobutyramide] (Isobutyryl-[dαMeDab][Dap](Pyridin(2-yl))[Abu][dPhg]; lactam 1-C) was tested. Which IC50 did it give?
Answer: > 10 µM

Question: `CC[C@@H]1NC(=O)C(CCNc2ccccn2)NC(=O)[C@](C)(NC(=O)C(C)C)CCNC(=O)[C@@H](c2ccccc2)NC1=O` (stereo partly drawn) [Cpd. No. 11, N-((3R,6S,12R)-6-ethyl-12-methyl-2,5,8,11-tetraoxo-3-phenyl-9-(2-(pyridin-2-ylamino)ethyl)-1,4,7,10-tetraazacyclotetradecan-12-yl)isobutyramide] (Isobutyryl-[dαMeDab][ξDab](Pyridin(2-yl))[Abu][dPhg]; lactam 1-C) was tested. Which IC50 did it give?
Answer: > 10 µM

Question: Which IC50 does the source give for `CC[C@@H]1NC(=O)C(CCc2ccccc2)NC(=O)[C@](C)(NC(=O)C(C)C)CCNC(=O)[C@@H](c2ccccc2)NC1=O` (stereo partly drawn) [Cpd. No. 13, N-((3R,6S,12R)-6-ethyl-12-methyl-2,5,8,11-tetraoxo-9-phenethyl-3-phenyl-1,4,7,10-tetraazacyclotetradecan-12-yl)isobutyramide] (Isobutyryl-[dαMeDab][ξhPhe][Abu][dPhg]; lactam 1-C) here?
Answer: > 10 µM

Question: `CC[C@@H]1NC(=O)C(CCCc2ccccc2)NC(=O)[C@](C)(NC(=O)C(C)C)CCNC(=O)[C@@H](c2ccccc2)NC1=O` (stereo partly drawn) [Cpd. No. 14, N-((3R,6S,12R)-6-ethyl-12-methyl-2,5,8,11-tetraoxo-3-phenyl-9-(3-phenylpropyl)-1,4,7,10-tetraazacyclotetradecan-12-yl)isobutyramide] (Isobutyryl-[dαMeDab][ξhhPhe][Abu][dPhg]; lactam 1-C) was tested. Which IC50 did it give?
Answer: > 10 µM

Question: Which IC50 does the source give for `CC[C@@H]1NC(=O)[C@H](CCC(N)=O)NC(=O)[C@](C)(NC(=O)C(C)C)CCNC(=O)[C@@H](c2ccccc2)NC1=O` [Cpd. No. 15, N-((3R,6S,12R)-9-(3-amino-3-oxopropyl)-6-ethyl-12-methyl-2,5,8,11-tetraoxo-3-phenyl-1,4,7,10-tetraazacyclotetradecan-12-yl)isobutyramide] (Isobutyryl-[dαMeDab]Q[Abu][dPhg]; lactam 1-C) here?
Answer: > 10 µM

Question: How did the IC50 turn out when `CC[C@@H]1NC(=O)[C@H](CCCNC(N)=O)NC(=O)[C@](C)(NC(=O)C(C)C)CCNC(=O)[C@@H](c2ccccc2)NC1=O` [Cpd. No. 16, N-((3R,6S,9S,12R)-6-ethyl-12-methyl-2,5,8,11-tetraoxo-3-phenyl-9-(3-ureidopropyl)-1,4,7,10-tetraazacyclotetradecan-12-yl)isobutyramide] (Isobutyryl-[dαMeDab][Cit][Abu][dPhg]; lactam 1-C) was run?
Answer: > 10 µM

Question: `CC[C@@H]1NC(=O)[C@H](CCNC2=NCCN2)NC(=O)[C@](C)(NC(=O)C(C)C)CCNC(=O)[C@@H](c2ccccc2)NC1=O` [Cpd. No. 18, N-((3R,6S,9S,12R)-9-(2-((4,5-dihydro-1H-imidazol-2-yl)amino)ethyl)-6-ethyl-12-methyl-2,5,8,11-tetraoxo-3-phenyl-1,4,7,10-tetraazacyclotetradecan-12-yl)isobutyramide] was tested. Which IC50 did it give?
Answer: > 10 µM

Question: For `CC[C@@H]1NC(=O)[C@H](CCNc2ncc[nH]2)NC(=O)[C@](C)(NC(=O)C(C)C)CCNC(=O)[C@@H](c2ccccc2)NC1=O` [Cpd. No. 19, N-((3R,6S,9S,12R)-9-(2-((1H-imidazol-2-yl)amino)ethyl)-6-ethyl-12-methyl-2,5,8,11-tetraoxo-3-phenyl-1,4,7,10-tetraazacyclotetradecan-12-yl)isobutyramide] (Isobutyryl-[dαMeDab][Dab](Imidazol2yl)[Abu][dPhg]; lactam 1-C), which IC50 is on record?
Answer: > 10 µM

Question: `CC[C@@H]1NC(=O)[C@H](CCCNc2ncc[nH]2)NC(=O)[C@](C)(NC(=O)C(C)C)CCNC(=O)[C@@H](c2ccccc2)NC1=O` [Cpd. No. 20, N-((3R,6S,9S,12R)-9-(3-((1H-imidazol-2-yl)amino)propyl)-6-ethyl-12-methyl-2,5,8,11-tetraoxo-3-phenyl-1,4,7,10-tetraazacyclotetradecan-12-yl)isobutyramide] (Isobutyryl-[dαMeDab][Orn](Imidazol2yl)[Abu][dPhg]; lactam 1-C) was tested. Which IC50 did it give?
Answer: > 10 µM

Question: How did the IC50 turn out when `CC[C@@H]1NC(=O)[C@H](CCCNc2ncccn2)NC(=O)[C@](C)(NC(=O)C(C)C)CCNC(=O)[C@@H](c2ccccc2)NC1=O` [Cpd. No. 21, N-((3R,6S,12R)-6-ethyl-12-methyl-2,5,8,11-tetraoxo-3-phenyl-9-(3-(pyrimidin-2-ylamino)propyl)-1,4,7,10-tetraazacyclotetradecan-12-yl)isobutyramide] (Isobutyryl-[dαMeDab][Orn](2Pyrimidinyl)[Abu][dPhg]; lactam 1-C) was run?
Answer: > 10 µM

Question: With `CC[C@@H]1NC(=O)[C@H](CCCN/C(N)=N/CC(F)(F)F)NC(=O)[C@](C)(NC(=O)C(C)C)CCNC(=O)[C@@H](c2ccccc2)NC1=O` [Cpd. No. 22, N-((3R,6S,9S,12R)-6-ethyl-12-methyl-2,5,8,11-tetraoxo-3-phenyl-9-(3-((E)-2-(2,2,2-trifluoroethyl)guanidino)propyl)-1,4,7,10-tetraazacyclotetradecan-12-yl)isobutyramide] as the compound, how does the IC50 read?
Answer: > 10 µM

Question: How did the IC50 turn out when `CC[C@@H]1NC(=O)[C@H](CCCNC(=N)NC(C)=O)NC(=O)[C@](C)(NC(=O)C(C)C)CCNC(=O)[C@@H](CC2CCCCC2)NC1=O` [Cpd. No. 26, N-((3R,6S,9S,12R)-9-(3-(3-acetylguanidino)propyl)-3-(cyclohexylmethyl)-6-ethyl-12-methyl-2,5,8,11-tetraoxo-1,4,7,10-tetraazacyclotetradecan-12-yl)isobutyramide] (Isobutyryl-[dαMeDab]R(Ac)[Abu][dCha]; lactam 1-C) was run?
Answer: 1.02 µM

Question: `CC[C@@H]1NC(=O)[C@H](CCCNC2=NCCN2)NC(=O)[C@](C)(NC(=O)C(C)C)CCNC(=O)[C@@H](CC2CCCCC2)NC1=O` [Cpd. No. 30, N-((3R,6S,9S,12R)-3-(cyclohexylmethyl)-9-(3-((4,5-dihydro-1H-imidazol-2-yl)amino)propyl)-6-ethyl-12-methyl-2,5,8,11-tetraoxo-1,4,7,10-tetraazacyclotetradecan-12-yl)isobutyramide] (Isobutyryl-[dαMeDab][Orn(2-imidazolinyl)][Abu][dCha]; lactam 1-C) was tested. Which IC50 did it give?
Answer: 0.67 µM

Question: For `CC[C@@H]1NC(=O)[C@H](CCCN/C(=N/C)NC)NC(=O)[C@](C)(NC(=O)C(C)C)CCNC(=O)[C@@H](CC2CCCCC2)NC1=O` [Cpd. No. 31, N-((3R,6S,9S,12R)-3-(cyclohexylmethyl)-9-(3-((E)-2,3-dimethylguanidino)propyl)-6-ethyl-12-methyl-2,5,8,11-tetraoxo-1,4,7,10-tetraazacyclotetradecan-12-yl)isobutyramide] (Isobutyryl-[dαMeDab][Arg(Me2s)][Abu][dCha]; lactam 1-C), which IC50 is on record?
Answer: > 10 µM

same assay, conditions: Homo sapiens, MOLM-13, 96 h; Table 2A; 4 days treatment; read-out: MOLM-13 IC50

Question: `C=CC(=O)NCCC[C@@H]1NC(=O)[C@](C)(NC(=O)C(C)C)CCNC(=O)[C@@H](c2ccccc2)NC(=O)[C@H](CC)NC1=O` [Cpd. No. 23, N-(3-((5S,8R,13R)-5-ethyl-13-isobutyramido-13-methyl-3,6,9,14-tetraoxo-8-phenyl-1,4,7,10-tetraazacyclotetradecan-2-yl)propyl)acrylamide] (Isobutyryl-[dαMeDab][Orn](Acryloyl)[Abu][dPhg]; lactam 1-C) was tested. Which IC50 did it give?
Answer: > 10 µM

Question: With `C=CC(=O)NCCCC[C@@H]1NC(=O)[C@](C)(NC(=O)C(C)C)CCNC(=O)[C@@H](c2ccccc2)NC(=O)[C@H](CC)NC1=O` [Cpd. No. 24, N-(4-((2S,5S,8R,13R)-5-ethyl-13-isobutyramido-13-methyl-3,6,9,14-tetraoxo-8-phenyl-1,4,7,10-tetraazacyclotetradecan-2-yl)butyl)acrylamide] (Isobutyryl-[dαMeDab]K(Acryloyl)[Abu][dPhg]; lactam 1-C) as the compound, how does the IC50 read?
Answer: > 10 µM

Question: How did the IC50 turn out when `CC[C@@H]1NC(=O)C(CCCNC(=O)CCl)NC(=O)[C@](C)(NC(=O)C(C)C)CCNC(=O)[C@@H](c2ccccc2)NC1=O` (stereo partly drawn) [Cpd. No. 25, N-((3R,6S,12R)-9-(3-(2-chloroacetamido)propyl)-6-ethyl-12-methyl-2,5,8,11-tetraoxo-3-phenyl-1,4,7,10-tetraazacyclotetradecan-12-yl)isobutyramide] (Isobutyryl-[dαMeDab][ξOrn](ClAc)[Abu][dPhg]; lactam 1-C) was run?
Answer: > 10 µM
